The term IC50 denotes the concentration that gives 50% inhibition.

The structures appear in SMILES notation. Read-outs that look alike come from different tables or passages of the source. Bounds are passed on as bounds.

8 compounds from paper PMC11496704, “Synthesis and cytotoxicity studies of novel N-arylbenzo[h]quinazolin-2-amines” (Beilstein Journal of Organic Chemistry, 2024) can be followed below.

Common to all, as to type: cell-based
In one data set the test system is HuH-7. Put plainly: Cytotoxicity secondary screen (IC50). Particulars: Homo sapiens, 48 h exposure, mean of triplicates, NE: no effect. On the procedure:
(§1) Cell culture. Skin normal fibroblastic cells are purchased from Lonza (Basel, Switzerland), HuH-7, Caco-2, MDA-MB-231, HCT-116, PC3, MCF7 and NCI-H727 cancer cell lines were obtained from ATCC (American Type Culture Collection). Cells are grown at 37 °C, 5% CO2 in ATCC recommended media: DMEM for HuH-7, MDA-MB-231, MDA-MB-468 and fibroblast, EMEM for MCF7 and CaCo-2, McCoy’s for HCT-116 and RPMI for PC3 and NCI-H727. All culture media are supplemented by 10% of FBS, 1% of penicillin-streptomycin and 2 mM glutamine.
(§2) Both studies have been performed following the protocols described in a previous paper, see ref. [2].

Data set [1] concerns PC3. Put plainly: Cytotoxicity secondary screen (IC50). Particulars: Homo sapiens, PC-3; 48 h exposure, mean of triplicates; NE: no effect. On the procedure:
as §1, §2

The test system of another data set is normal human fibroblasts. Put plainly: Cytotoxicity secondary screen (IC50). Particulars: Fibroblast, 48 h exposure, mean of triplicates, NE: no effect, highest concentration tested 25 μM, read-out: IC50 Fibro. How it is done: as §1, §2
Data set [2] concerns Caco-2. Put plainly: Cytotoxicity secondary screen (IC50). The following applies: Homo sapiens, 48 h exposure, mean of triplicates, NE: no effect. On the procedure:
(§3) Next, we performed a cytotoxicity screening of the nineteen molecules 4a–s, at 25 μM, investigating seven representative cancer cell lines: hepatocellular carcinoma HuH-7, colorectal adenocarcinoma CaCo-2, breast carcinoma MDA-MB-231 and MDA-MB-468, colorectal carcinoma HCT-116, prostate carcinoma PC3 and breast carcinoma MCF7. […] For details see: ref. [2] and Supporting Information File 1, Table S1.
as §1, §2

The subject of a further data set is HCT-116. Put plainly: Cytotoxicity secondary screen (IC50). The following applies: Homo sapiens, 48 h exposure, mean of triplicates, NE: no effect. On the procedure:
as §3, §1, §2

Data set [3] concerns Caco-2. Put plainly: Cytotoxicity primary screen (single dose). The following applies: 48 h exposure, mean of triplicates. How it is done:
as §3, §1, §2
(§4) Table S1: Cytotoxicity studies (single dose at 25µM) of N-arylbenzo[h]quinazolin-2-amines 4a–s
(§5) The toxicity is expressed as the percentage of cell survival (from 100 % to 0 %) over DMSO control after 48 h exposure (mean of triplicates).
(§6) Effect of the solvent (DMSO) was studied at 0.25%.

The subject of data set [4] is HuH7. Put plainly: Cytotoxicity primary screen (single dose). The following applies: Homo sapiens, Huh-7; single dose 25 μM, 48 h exposure, mean of triplicates; read-out: percentage of cell survival over DMSO control, HuH7. How it is done: as §3, §1, §2, §4, §5, §6
The next data set has as its system HCT116. Put plainly: Cytotoxicity primary screen (single dose). Also on record: viability: dose or concentration left out as unconfirmed. Particulars: Homo sapiens, HCT-116; single dose 25 μM, 48 h exposure, mean of triplicates; read-out: percentage of cell survival over DMSO control, HCT116. On the procedure: as §3, §1, §2, §4, §5, §6
Data set [5] deals with MCF7. Put plainly: Cytotoxicity primary screen (single dose). Also noted: viability: dose or concentration left out as unconfirmed. The following applies: Homo sapiens, single dose 25 μM, 48 h exposure, mean of triplicates, read-out: percentage of cell survival over DMSO control, MCF7. How it is done:
as §3, §1, §2, §4, §5, §6

For another data set, the system named is MDA231. Put plainly: Cytotoxicity primary screen (single dose). The following applies: Homo sapiens, MDA-MB-231, 48 h exposure, mean of triplicates, read-out: percentage of cell survival over DMSO control, MDA231; for viability at 25 µM: single dose 25 μM. Also noted: viability: dose or concentration left out as unconfirmed. On the procedure:
as §3, §1, §2, §4, §5, §6

The next data set relates to MDA468. Put plainly: Cytotoxicity primary screen (single dose). Also noted: viability: dose or concentration left out as unconfirmed. The following applies: 48 h exposure, mean of triplicates, read-out: percentage of cell survival over DMSO control, MDA468; for viability at 25 µM: single dose 25 μM. On the procedure:
as §3, §1, §2, §4, §5, §6

In data set [6] the test system is PC3. Put plainly: Cytotoxicity primary screen (single dose). Also noted: viability: dose or concentration left out as unconfirmed. Particulars: Homo sapiens, PC-3, 48 h exposure, mean of triplicates, read-out: percentage of cell survival over DMSO control, PC3; for viability at 25 µM: single dose 25 μM. How it is done: as §3, §1, §2, §4, §5, §6
The test system of data set [7] is seven representative tumor cell lines. Put plainly: Cytotoxicity IC50, summary over several cell lines. The following applies: read-out: IC50 (span over cell lines). How it is done: as §1, with “For details see: ref. [2] and Supporting Information File 1, Table S1. […] [table] Cell culture.” for “Cell culture.”, “mM glutamine. Both studies have been performed following the protocols described in a previous paper, see ref. [2].” for “mM glutamine.”

The next data set concerns MDA-MB-231. Put plainly: Cytotoxicity secondary screen (IC50). The following applies: Homo sapiens, 48 h exposure, mean of triplicates, NE: no effect.
In the next data set the test system is MDA-MB-468. Put plainly: Cytotoxicity secondary screen (IC50). The following applies: Homo sapiens, 48 h exposure, mean of triplicates, NE: no effect.
The test system of data set [8] is MCF7. Put plainly: Cytotoxicity secondary screen (IC50). The following applies: Homo sapiens, 48 h exposure, mean of triplicates, NE: no effect.
Data set [9] deals with HuH7. Put plainly: Cytotoxicity primary screen (single dose). Particulars: Homo sapiens, Huh-7; 48 h exposure, mean of triplicates; read-out: percentage of cell survival over DMSO control, HuH7. Also on record: dose or concentration left out as unconfirmed.

As to `Fc1cccc(Nc2ncc3ccc4ccccc4c3n2)c1` [Compound 4i, N-(3-fluorophenyl)benzo[h]quinazolin-2-amine], the IC50 is 17 µM in the data set on HuH-7; 11 µM in the data set on PC3 [1]; over 25 µM in the data set on normal human fibroblasts; 2 µM in the data set with Caco-2 [2]; 6 µM in the data set with HCT-116; 2 to 6 µM in [7] (on Caco-2, MDA-MB-468, HCT-116 and MCF7). The values for the IC50 in the data set with MDA-MB-231, in the data set with MDA-MB-468 and with MCF7 [8] were 17 µM, 4 µM and 3 µM, respectively. Besides, in the data set with Caco-2 [3] (single dose 25 μM), the “percentage of cell survival over DMSO control, CaCo-2” value (“percentage of cell survival” below) was determined as 34%. The viability at 25 µM turned out to be 60% with HuH7 [4]; 11% in the data set with HCT116; 59% in the data set with MCF7 [5]; 49% in the data set with MDA231; 59% in the data set with MDA468; 36% in the data set on PC3 [6].
With `c1ccc(Nc2ncc3ccc4ccccc4c3n2)cc1` [Compound 4a, N-phenylbenzo[h]quinazolin-2-amine], the IC50 was 1.7 µM in the data set on HuH-7; 34.5 µM with PC3 [1]; over 25 µM in the data set on normal human fibroblasts; 4.7 µM with Caco-2 [2]; 4 µM in the data set on HCT-116; 1.7 to 6 µM in [7] (against HuH-7, Caco-2, MDA-MB-468 and HCT-116 cells). For the same compound, the half-inhibitory concentration (IC50) in the data set with MDA-MB-231 is 29 µM; in the data set with MDA-MB-468, 6 µM; in the data set on MCF7 [8] it was 13 µM. Further, the “percentage of cell survival” value with Caco-2 [3] (single dose 25 μM) was 33%. Besides, the viability at 25 µM in the data set on HuH7 [4] worked out at 60%; in the data set with HCT116, 48%; in the data set on MCF7 [5] it was 59%; in the data set with MDA231, 61%; in the data set with MDA468 it was 56%; with PC3 [6], 58%.
With `Fc1ccccc1Nc1ncc2ccc3ccccc3c2n1` [Compound 4h, N-(2-fluorophenyl)benzo[h]quinazolin-2-amine], the IC50 in the data set with HuH-7 is over 25 µM; in the data set on PC3 [1], over 25 µM; in the data set on normal human fibroblasts, over 25 µM; in the data set with Caco-2 [2], 4.6 µM; in the data set on HCT-116 it was over 25 µM; with MDA-MB-231, over 25 µM. The IC50 with MDA-MB-468 and in the data set on MCF7 [8] was over 25 µM in each case. The “percentage of cell survival” value in the data set on Caco-2 [3] (single dose 25 μM) is on record as 48%. The viability at 25 µM turned out to be 81% in the data set on HuH7 [4]; 82% in the data set on HCT116; 83% in the data set with MCF7 [5]; 83% with MDA231; 94% in the data set on MDA468; 74% with PC3 [6].
For the compound `Cc1ccccc1Nc1ncc2ccc3ccccc3c2n1` [Compound 4b, N-(o-tolyl)benzo[h]quinazolin-2-amine], the IC50 with HuH-7, in the data set with PC3 [1], in the data set on normal human fibroblasts, with Caco-2 [2], with HCT-116 and with MDA-MB-231 was over 25 µM in each case. Also, the IC50 in the data set with MDA-MB-468 and with MCF7 [8] was over 25 µM each time. In the data set on Caco-2 [3] (single dose 25 μM), the “percentage of cell survival” value was 56%. Moreover, the viability at 25 µM in the data set with HuH7 [4] amounted to 69%; in the data set with HCT116, 79%; with MCF7 [5], 70%; with MDA231, 86%; with MDA468, 93%; in the data set with PC3 [6] it was 72%.
For the compound `Clc1cccc(Nc2ncc3ccc4ccccc4c3n2)c1` [Compound 4l, N-(3-chlorophenyl)benzo[h]quinazolin-2-amine], the IC50 is 22 µM in the data set with HuH-7; 26 µM with PC3 [1]; over 25 µM in the data set with normal human fibroblasts; 17 µM with Caco-2 [2]; 24 µM in the data set with HCT-116; over 25 µM in the data set with MDA-MB-231. For the same compound, the IC50 in the data set on MDA-MB-468 stood at 26 µM; in the data set with MCF7 [8] it was 18 µM. Moreover, the “percentage of cell survival” value in the data set on Caco-2 [3] (single dose 25 μM) worked out at 38%. For the same compound, the viability at 25 µM came out at 71% in the data set on HuH7 [4]; 56% in the data set with HCT116; 68% in the data set with MCF7 [5]; 67% with MDA231; 78% in the data set with MDA468; 59% in the data set on PC3 [6].
For `COc1cccc2c1C(=O)c1c(O)c3c(c(O)c1C2=O)C[C@@](O)(C(=O)CO)C[C@@H]3O[C@H]1C[C@H](N)[C@H](O)[C@H](C)O1` [doxorubicin, reference compound], the IC50 was found to be 0.03 µM in the data set on HuH-7; 0.06 µM with PC3 [1]; 0.04 µM in the data set on HCT-116; 0.03 µM in the data set on MDA-MB-231; 0.03 µM with MDA-MB-468; 0.07 µM in the data set with MCF7 [8]. Further, the “percentage of cell survival” value in the data set on Caco-2 [3] (reference compound at 0.025 M (so in the source)) came out at 59%. Also, the viability in the data set with MDA231 worked out at 31%; in the data set with MDA468 it was 24%; in the data set with PC3 [6], 42%; in the data set with HuH7 [9] it was 59%.
For the compound `COc1cccc(Nc2ncc3ccc4ccccc4c3n2)c1` [Compound 4f, N-(3-methoxyphenyl)benzo[h]quinazolin-2-amine], the IC50 in the data set with HuH-7 is 23 µM; in the data set on PC3 [1] it was 26 µM; with normal human fibroblasts, over 25 µM; in the data set with Caco-2 [2], 4.3 µM; in the data set on HCT-116, 10 µM; in the data set with MDA-MB-231 it was over 25 µM. Moreover, the IC50 in the data set with MDA-MB-468 was 33 µM; in the data set with MCF7 [8], over 25 µM. For the same compound, the “percentage of cell survival” value with Caco-2 [3] (single dose 25 μM) is reported as 59%. Also, the viability at 25 µM in the data set with HuH7 [4] turned out to be 59%; in the data set on HCT116, 29%; in the data set on MCF7 [5], 78%; in the data set on MDA231 it was 77%; in the data set on MDA468, 73%; in the data set on PC3 [6], 54%.
With `Cc1cccc(Nc2ncc3ccc4ccccc4c3n2)c1` [Compound 4c, N-(m-tolyl)benzo[h]quinazolin-2-amine], the IC50 with HuH-7 was over 25 µM; in the data set on PC3 [1] it was over 25 µM; in the data set on normal human fibroblasts, over 25 µM; with Caco-2 [2], 28 µM; with HCT-116 it was 18 µM; in the data set with MDA-MB-231, over 25 µM. Further, the IC50 in the data set on MDA-MB-468 is 22 µM; in the data set on MCF7 [8], 30 µM. In addition, the “percentage of cell survival” value in the data set with Caco-2 [3] (single dose 25 μM) was determined as 50%. In addition, the viability at 25 µM with HuH7 [4] stood at 68%; in the data set on HCT116, 52%; in the data set on MCF7 [5], 50%; in the data set with MDA231 it was 81%; in the data set on MDA468 it was 65%; in the data set on PC3 [6], 60%.
